Consider 38 compounds from patent US6406859B1 (Synaptic Pharmaceutical Corporation, priority 1992, dated 2002).

Where two headings read alike, the source gives them in different places.

Experiment [1] deals with T1, 5-HT1F receptor (Homo sapiens, UniProt P30939).
T1 sequence (P30939 1-366): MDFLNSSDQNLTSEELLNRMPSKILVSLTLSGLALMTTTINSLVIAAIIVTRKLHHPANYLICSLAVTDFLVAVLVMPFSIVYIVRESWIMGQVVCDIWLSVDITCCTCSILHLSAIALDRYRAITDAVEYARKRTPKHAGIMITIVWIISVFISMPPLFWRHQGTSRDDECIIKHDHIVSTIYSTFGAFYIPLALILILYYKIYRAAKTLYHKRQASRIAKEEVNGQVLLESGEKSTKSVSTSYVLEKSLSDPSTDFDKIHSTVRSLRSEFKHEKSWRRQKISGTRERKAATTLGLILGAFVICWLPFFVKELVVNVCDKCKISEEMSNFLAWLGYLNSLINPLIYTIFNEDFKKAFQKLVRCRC
Kind of experiment: [3H]5-HT displacement binding to clonal 5-HT1F cell membranes (transfected Ltk- cells). Also noted: The entire coding region of clone hl16a was cloned into the eukaryotic expression vector pcEXV-3; expressed in transfected cells. Particulars: for affinity for 5-HT1F receptor in words: displacement of [3H]5-HT specific binding.
Description: Stable cell lines were obtained by cotransfection with the plasmid pcEXV-3 (containing the 5-HT1F receptor gene) and the plasmid pGCcos3neo (containing the aminoglycoside transferase gene) into Ltk^− cells or NIH3T3 cells using calcium phosphate (reagents obtained from Specialty Media, Lavellette, N.J.). The cells were grown in a controlled environment (37° C. 5% CO2) an monolayers in Dulbecco's modified Eagle medium (Gibco, Grand Island, N.Y.) containing 25 mM glucose and supplemented with 10% bovine calf serum, 100 U/ml penicillin G and 100 μg/ml streptomycin sulfate.
(§1) Membrane Preparation: Membranes were prepared from transfected Ltk^− cells which were grown to 100% confluency. The cells were washed twice with phosphate-buffered saline, scraped from the culture dishes into 5 ml of ice-cold phosphate-buffered saline, and centrifuged at 200×g for 5 min at 4°. The pellet was resuspended in 2.5 ml of ice-cold Tris buffer (20 mM Tris-HCl, pH 7.4 at 23°, 5 mM EDTA) and homogenized by a Wheaton tissue grinder. The lysate was subsequently centrifuged at 200×g for 5 min at 4° to pellet large fragments which were discarded. The supernatant was collected and centrifuged at 40,000×g for 20 min at 4°. The pellet resulting from this centrifugation was washed once in ice-cold Tris wash buffer and finally resuspended in a final buffer containing 50 mM Tris-HCl and 0.5 mM EDTA, pH 7.4 at 23°. Membrane preparations were kept on ice and utilized within two hours for the radioligand binding assays.
The binding profile of drugs in competition experiments was accomplished using 10-12 concentrations of compound. Incubation times were 30 min for both saturation and displacement studies based upon initial investigations which determined equilibrium binding conditions. […] Binding was initiated by the addition of 50 μl membrane homogenates (10-20 μg). […] All experiments were performed in triplicate.

Experiment [2] concerns the target T1, 5-HT1F receptor.
Description: (§2) The antagonist Kb was estimated by method of Furchgott (32): Kb=(Dose of antagonist)/((E50 in the presence of antagonist/control E50) −1).
(§3) Transfected NIH3T3 cells (estimated Bmax from one point competition studies=486 fmol/mg of protein) were incubated in DMEM, 5 mM theophylline, 10 mM Hepes (4-[2-Hydroxyethyl]-1-piperazineethanesulfonic acid), 10 μM pargyline, for 20 minutes at 37° C., CO2. Drug dose-effect curves were then conducted by adding 6 different final concentrations of drug, followed immediately by the addition of forskolin (10 μM). Subsequently, the cells were incubated for an additional 10 minutes at 37° C., 5% CO2. The media was aspirated and the reaction terminated by the addition of 100 mM HCl. The plates were stored at 4° C. for 15 minutes and centrifuged for 5 minutes (500×g at 4° C.) to pellet cellular debris. Aliquots of the supernatant fraction were then stored at −20° C. prior to assessment of cAMP formation by radioimmunoassay (cAMP Radioimmunoassay kit, Advanced Magnetics, Cambridge, Mass.).
The target in another experiment is 5-HT1E receptor (Homo sapiens, UniProt P28566). Particulars: U.S. Ser. No. 803,626; cited from earlier work.
Sequence of 5-HT1E receptor (P28566 whole entry): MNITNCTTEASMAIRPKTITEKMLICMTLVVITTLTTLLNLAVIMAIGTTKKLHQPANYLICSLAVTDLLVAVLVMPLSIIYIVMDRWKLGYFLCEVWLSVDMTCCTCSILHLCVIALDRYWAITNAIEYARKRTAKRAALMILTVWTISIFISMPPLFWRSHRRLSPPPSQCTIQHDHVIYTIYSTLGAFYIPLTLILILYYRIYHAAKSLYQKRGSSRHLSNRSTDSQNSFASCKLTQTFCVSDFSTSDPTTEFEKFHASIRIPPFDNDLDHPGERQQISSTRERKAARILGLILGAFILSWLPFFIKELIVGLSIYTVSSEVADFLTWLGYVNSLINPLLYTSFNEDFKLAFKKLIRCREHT
Experiment [3] concerns the target T1, 5-HT1F receptor. The experiment is described as follows: Coupling to PI turnover. It counts as cell-based. On the set-up: The entire coding region of clone hl16a was cloned into the eukaryotic expression vector pcEXV-3; expressed in transfected cells. The following applies: dose of 10 μM.
A further experiment has as its system human 5-HT1F receptor. Kind of experiment: Inhibition of [3H]5-HT specific binding by Gpp(NH)p (G-protein coupling). Particulars: mean ± S.E.M., n=3.
Another experiment relates to dog saphenous vein. The following applies: cited from earlier work.
Experiment [4] concerns the target T1, 5-HT1F receptor. Kind of experiment: cell-based.
Description: as §2, §3
Setting [5] is: read-out: Ki (nM) for the inhibition of [3H]5-HT specific binding, 4.5-5.5 nM [3H]5-HT, 10-12 drug concentrations, Cheng-Prusoff from IC50, mean ± S.E.M. of 2-4 determinations.
Setting [6] is: read-out: Ki (nM) for the inhibition of [3H]5-HT specific binding.

Description for human 5-HT1F receptor: as §1
The binding profile of drugs in competition experiments was accomplished using 10-12 concentrations of compound. Incubation times were 30 min for both saturation and displacement studies based upon initial investigations which determined equilibrium binding conditions. […] Binding was initiated by the addition of 50 μl membrane homogenates (10-20 μg). […] IC50 values were converted to K1 values using the Cheng-Prusoff equation (1973). All experiments were performed in triplicate.

Usually EC50 stands for the concentration at which the effect is half-maximal. `c1ccc2c(N3CCNCC3)cccc2c1` [1-Napthylpiperazine]: the Ki at 5-HT1F receptor [1] (unit inferred, read-out: K1) was 54 nM. On 5-HT1F receptor [2] (read-out: EC50 for decrease in forskolin-stimulated cAMP production), the 50% effective concentration (EC50) was 4.5 ± 0.2 nM.

As to `Cc1[nH]c2ccc(O)cc2c1CCN` [2-Methyl-5-HT], the Ki on 5-HT1F receptor [1] (setting [5]) is 413 ± 5.6 nM.

With `NCCc1c[nH]c2ccc(OCc3ccccc3)cc12` [5-Benzoxytryptamine], on 5-HT1F receptor [1], the Ki amounted to 1490 nM.

Regarding `NCCc1c[nH]c2ccc(C(N)=O)cc12` [5-CT, 5-carboxyamidotryptamine], the “affinity for 5-HT1F receptor in words” value at 5-HT1F receptor [1] is reported as “low affinity”; at 5-HT1F receptor [1] (listed as 5-carboxyamidotryptamine) it was “significantly decreases the affinity”. Further, the Ki on 5-HT1F receptor [1] (setting [6]) was 717 ± 71 nM. Besides, the “affinity for 5-HT1E receptor in words” value at 5-HT1E receptor is “low affinity”.

As to `NCCc1c[nH]c2ccc(F)cc12` [5-Fluorotryptamine], at 5-HT1F receptor [1], the Ki was determined as 1810 nM.

For the compound `NCCc1c[nH]c2ccc(O)cc12` [5-HT, 5-hydroxytryptamine], the “affinity for 5-HT1F receptor in words” value on 5-HT1F receptor [1] is given as “highest affinity”. On 5-HT1F receptor [2] (forskolin 10 μM), the “maximum inhibition of cAMP production” value is given as 67±5.4%. In addition, on 5-HT1F receptor [3], the “coupling to PI turnover” value is reported as “no evidence for coupling of this receptor to PI turnover was detected”.

Take `COc1ccc2[nH]cc(CCN)c2c1` [5-MT, 5-methoxytryptamine]: on 5-HT1F receptor [1], the Ki is 1120 nM and the “affinity for 5-HT1F receptor in words” value was “significantly decreases the affinity”.

Turning to `COc1ccc2[nH]cc(CCN(C)C)c2c1` [5-Methoxy-N,N-DMT, 5-methoxy-N,N-dimethyltryptamine], on 5-HT1F receptor [1], the Ki came out at 37.5 ± 1.5 nM and the “affinity for 5-HT1F receptor in words” value is “affinity much higher than the other 5-substituted tryptamine derivatives”.

For `CCCN(CCC)C1CCc2cccc(O)c2C1` (stereo not shown) [8-OH-DPAT], the “affinity for 5-HT1F receptor in words” value on 5-HT1F receptor [1] is reported as “very poor affinity”. For the same compound, the Ki at 5-HT1F receptor [1] (setting [6]) is 1770 nM.

Turning to `COc1cc(CC(C)N)c(OC)cc1I` (stereo not shown) [DOI], the “affinity for 5-HT1F receptor in words” value on 5-HT1F receptor [1] is given as “very poor affinity”. Moreover, the Ki on 5-HT1F receptor [1] (setting [6]) amounted to 1740 nM.

With `CCCN(CCC)CCc1c[nH]c2ccc(C(N)=O)cc12` [DP-5-CT], the Ki at 5-HT1F receptor [1] (setting [6]) worked out at 1610 nM.

Consider `CN1C[C@H](C(=O)N[C@]2(C)O[C@@]3(O)[C@@H]4CCCN4C(=O)[C@H](Cc4ccccc4)N3C2=O)C[C@@H]2c3cccc4[nH]cc(c34)C[C@H]21` [Dihydroergotamine], for which the Ki on 5-HT1F receptor [1] is 276 ± 49 nM.

Regarding `C[C@@H](CO)NC(=O)[C@@H]1C=C2c3cccc4[nH]cc(c34)C[C@H]2N(C)C1` [Ergonovine], on 5-HT1F receptor [1], the Ki turned out to be 31 ± 1.5 nM.

Consider `CN1C[C@H](C(=O)N[C@]2(C)O[C@@]3(O)[C@@H]4CCCN4C(=O)[C@H](Cc4ccccc4)N3C2=O)C=C2c3cccc4[nH]cc(c34)C[C@H]21` [Ergotamine], for which, at 5-HT1F receptor [1] (setting [5]), the Ki is 171 ± 28 nM.

For the compound `Nc1nc2c(ncn2[C@@H]2O[C@H](COP(=O)(O)OP(=O)(O)NP(=O)(O)O)[C@@H](O)[C@H]2O)c(=O)[nH]1` [Gpp(NH)p], in the experiment with human 5-HT1F receptor, the “Imax of inhibition of [3H]5-HT specific binding” value stood at 55.6±3.2%.

`COc1ccc2c3c([nH]c2c1)C(C)=NCC3` [Harmaline]: the Ki at 5-HT1F receptor [1] is more than 10000 nM.

`O=C(c1ccc(F)cc1)C1CCN(CCn2c(=O)[nH]c3ccccc3c2=O)CC1` [Ketanserin]: at 5-HT1F receptor [1], the Ki is more than 10000 nM and the “affinity for 5-HT1F receptor in words” value is given as “very poor affinity”.

On to `COc1ccc2[nH]cc(CCNC(C)=O)c2c1` [Melatonin], for which, at 5-HT1F receptor [1], the Ki is more than 10000 nM.

`CN1C[C@@H](NS(=O)(=O)N(C)C)C[C@@H]2c3cccc4c3c(cn4C)C[C@H]21` [Mesulergine] gave a Ki at 5-HT1F receptor [1] of more than 10000 nM.

Turning to `CN1C[C@H](CNC(=O)OCc2ccccc2)C[C@@H]2c3cccc4c3c(cn4C)C[C@H]21` [Metergoline], the Ki on 5-HT1F receptor [1] (setting [5]) is 341 ± 71 nM. The “block of the effects of sumatriptan” value with dog saphenous vein is on record as “does not block the effects of sumatriptan”.

Consider `CSc1ccc2c(c1)C(N1CCN(C)CC1)Cc1ccccc1S2` (stereo not shown) [Methiothepin], for which the Ki on 5-HT1F receptor [1] (setting [5]) amounted to 652 ± 41 nM. For the same compound, the “blockade of functional 5-HT response” value on 5-HT1F receptor [2] (5-HT 1 μM, antagonist 10 μM) is “completely blocked”. In addition, on 5-HT1F receptor [2] (FIG. 3, 5-HT curves with and without antagonist), the nature of antagonism result is “surmountable”. Further, on 5-HT1F receptor [2] (compound alone), the “direct effect of compound on cAMP response” value is listed as “No direct effect”. For the same compound, the Kd on 5-HT1F receptor [2] (read-out: apparent KD from dose shift of 5-HT concentration-effect curve, antagonist, method of Furchgott (FIG. 3)) stood at 438 ± 14 nM.

Turning to `CC[C@@H](CO)NC(=O)[C@@H]1C=C2c3cccc4[nH]cc(c34)C[C@H]2N(C)C1` [Methylergonovine], on 5-HT1F receptor [1], the “affinity for 5-HT1F receptor in words” value is listed as “high affinity”. For the same compound, the Ki at 5-HT1F receptor [1] (setting [5]) came out at 31 ± 11 nM.

For `CC[C@@H](CO)NC(=O)[C@@H]1C=C2c3cccc4c3c(cn4C)C[C@H]2N(C)C1` [Methysergide], the “affinity for 5-HT1F receptor in words” value at 5-HT1F receptor [1] was “high affinity”. Besides, the Ki on 5-HT1F receptor [1] (setting [6]) came to 34 ± 4.9 nM.

`COc1ccccc1N1CCN(CCCCN2C(=O)c3ccccc3C2=O)CC1` [NAN 190]: the Ki at 5-HT1F receptor [1] (setting [5]) came out at 203 ± 13 nM.

Turning to `CC(C)NCC(O)COc1cccc2[nH]ccc12` (stereo not shown) [Pindolol], on 5-HT1F receptor [1], the Ki was more than 10000 nM and the “affinity for 5-HT1F receptor in words” value is “very poor affinity”.

Take `CC(C)NCC(O)COc1cccc2ccccc12` (stereo not shown) [Propanolol]: the Ki at 5-HT1F receptor [1] came out at 8710 nM.

For the compound `c1ccc2nc(N3CCNCC3)ccc2c1` [Quipanzine], on 5-HT1F receptor [1] (setting [6]), the Ki turned out to be 4670 nM.

As for `Cc1nc2sccn2c(=O)c1CCN1CCC(=C(c2ccc(F)cc2)c2ccc(F)cc2)CC1` [Ritanserin], on 5-HT1F receptor [1], the Ki was 3520 nM.

On to `CN1CCc2cc(Cl)c(O)cc2[C@@H](c2ccccc2)C1` [SCH 23390], for which the Ki on 5-HT1F receptor [1] was determined as 1490 nM.

On to `O=C(CCCN1CCC2(CC1)C(=O)NCN2c1ccccc1)c1ccc(F)cc1` [Spiperone], for which, on 5-HT1F receptor [1], the Ki is more than 10000 nM and the “affinity for 5-HT1F receptor in words” value is on record as “very poor affinity”.

Regarding `FC(F)(F)c1cccc(N2CCNCC2)c1` [TFMPP], the Ki on 5-HT1F receptor [1] (setting [5]) was 1000 nM.

For `NCCc1c[nH]c2ccccc12` [Tryptamine], the “affinity for 5-HT1F receptor in words” value at 5-HT1F receptor [1] was “significantly decreases the affinity”. In addition, the Ki on 5-HT1F receptor [1] (setting [6]) worked out at 2410 nM.

With `COC(=O)[C@@H]1[C@H]2C[C@H]3c4[nH]c5ccccc5c4CCN3C[C@@H]2CC[C@@H]1O` [Yohimbine], at 5-HT1F receptor [1], the “affinity for 5-HT1F receptor in words” value was “fair affinity”. At 5-HT1F receptor [1] (setting [6]), the Ki was 92 ± 11 nM.

On to `COc1cc(N)c(Cl)cc1C(=O)NC1CN2CCC1CC2` (stereo not shown) [Zacopride], for which, at 5-HT1F receptor [1], the Ki was more than 10000 nM and the “affinity for 5-HT1F receptor in words” value is on record as “very poor affinity”.

Turning to `CN1C[C@H](CO)C=C2c3cccc4[nH]cc(c34)C[C@H]21` [lysergol], the concentration for a half-maximal effect (EC50) on 5-HT1F receptor [4] came out at 8.8 ± 4.3 nM.

Consider `Clc1cccc(N2CCNCC2)c1` [mCPP], for which the Ki on 5-HT1F receptor [1] (setting [6]) is 2020 nM.

On to `COC(=O)[C@H]1[C@H]2C[C@H]3c4[nH]c5ccccc5c4CCN3C[C@H]2CC[C@@H]1O` [rauwolscine], for which, at 5-HT1F receptor [1], the “affinity for 5-HT1F receptor in words” value was “fair affinity”.

`CC(N)Cc1c[nH]c2ccc(O)cc12` (stereo not drawn) [α-Methyl-5-HT] had a Ki on 5-HT1F receptor [1] of 184 ± 35 nM.
